Results from patent US20240208992A1, “MACROCYCLES AS CFTR MODULATORS” (Idorsia Pharmaceuticals Ltd, priority 2021, published 2024).

Target: human F508del-CFTR (Homo sapiens, UniProt P13569, DEL508-508)
Experiment: F508del-CFTR cell surface expression (corrector activity), DiscoveRx ß-galactosidase complementation chemiluminescence assay in recombinant U2OS cell line;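 also: U2OS cells co-expressing ProLink-tagged F508del-CFTR and a membrane-anchored enzyme acceptor, where more surface CFTR restores β-galactosidase activity measured by chemiluminescence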
Details: U2OS cell line, 16h compound incubation; for EC50: EC50, F508del-CFTR cell surface expression, geomean values; for Emax: in relation to the Emax of the corrector lumacaftor (=100%), arithmetic mean values

Chain of human F508del-CFTR (P13569 with tags, fused parts or gaps DEL508-508): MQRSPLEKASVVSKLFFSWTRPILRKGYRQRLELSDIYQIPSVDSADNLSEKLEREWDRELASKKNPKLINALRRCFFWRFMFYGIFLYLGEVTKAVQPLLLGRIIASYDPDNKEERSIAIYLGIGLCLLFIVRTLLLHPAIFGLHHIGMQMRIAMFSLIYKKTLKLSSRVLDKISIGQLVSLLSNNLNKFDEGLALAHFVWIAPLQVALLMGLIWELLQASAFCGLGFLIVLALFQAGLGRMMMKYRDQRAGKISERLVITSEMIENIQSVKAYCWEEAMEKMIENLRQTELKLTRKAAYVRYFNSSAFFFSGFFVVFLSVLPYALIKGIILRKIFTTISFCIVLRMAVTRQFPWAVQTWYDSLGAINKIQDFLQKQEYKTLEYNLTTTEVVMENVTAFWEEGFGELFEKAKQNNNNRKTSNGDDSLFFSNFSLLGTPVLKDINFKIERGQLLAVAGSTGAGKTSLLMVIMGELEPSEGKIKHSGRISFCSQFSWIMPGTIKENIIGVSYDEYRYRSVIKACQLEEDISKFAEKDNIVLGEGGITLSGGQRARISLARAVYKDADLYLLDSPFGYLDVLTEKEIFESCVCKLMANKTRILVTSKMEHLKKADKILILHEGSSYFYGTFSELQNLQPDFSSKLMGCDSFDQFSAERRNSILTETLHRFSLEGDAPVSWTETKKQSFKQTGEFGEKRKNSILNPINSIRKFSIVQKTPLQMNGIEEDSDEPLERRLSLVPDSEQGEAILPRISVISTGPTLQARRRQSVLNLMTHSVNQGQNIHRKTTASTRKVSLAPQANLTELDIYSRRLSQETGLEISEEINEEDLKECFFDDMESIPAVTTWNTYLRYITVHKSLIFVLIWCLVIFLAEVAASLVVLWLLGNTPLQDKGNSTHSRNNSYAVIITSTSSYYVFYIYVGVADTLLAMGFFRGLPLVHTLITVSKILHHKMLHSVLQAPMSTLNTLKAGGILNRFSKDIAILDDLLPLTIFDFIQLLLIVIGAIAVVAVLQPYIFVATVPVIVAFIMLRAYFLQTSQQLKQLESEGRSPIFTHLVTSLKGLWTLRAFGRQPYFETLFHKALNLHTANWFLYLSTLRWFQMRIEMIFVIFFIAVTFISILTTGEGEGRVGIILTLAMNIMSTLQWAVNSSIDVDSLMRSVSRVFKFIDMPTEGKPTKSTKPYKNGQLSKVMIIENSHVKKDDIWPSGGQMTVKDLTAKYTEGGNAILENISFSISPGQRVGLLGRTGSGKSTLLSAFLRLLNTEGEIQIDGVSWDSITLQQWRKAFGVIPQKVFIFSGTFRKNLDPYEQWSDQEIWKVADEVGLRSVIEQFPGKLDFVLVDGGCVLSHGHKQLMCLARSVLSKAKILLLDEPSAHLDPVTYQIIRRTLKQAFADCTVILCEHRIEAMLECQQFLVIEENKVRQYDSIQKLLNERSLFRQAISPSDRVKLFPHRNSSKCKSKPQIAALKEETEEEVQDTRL

Row | Structure (SMILES) | EC50 | Emax (U2OS) | Emax
1 | CN1C(=O)C[C@@H](C(=O)NCCc2ccc3c(c2)OCO3)NC(=O)c2c(ccc3ccccc23)OC[C@@H](Cc2ccccc2)NC(=O)CN(C[C@H]2CCCCO2)C(=O)[C@@H]1CC1CCCCC1 (racemic) [Example 287, (3RS,7S,13R)-N-(2-(benzo[d][1,3]dioxol-5-yl)ethyl)-13-benzyl-7-(cyclohexylmethyl)-6-methyl-1,5,8,11-tetraoxo-9-(((R)-tetrahydro-2H-pyran-2-yl)methyl)-1,2,3,4,5,6,7,8,9,10,11,12,13,14-tetradecahydronaphtho[1,2-p][1]oxa[4,7,10,14]tetraazacycloheptadecine-3-carboxamide] | 207 nM | 154% | 
2 | CN1C(=O)C[C@@H](C(=O)NCCc2ccc3c(c2)OCO3)NC(=O)c2c(ccc3ccccc23)OC[C@@H](Cc2ccccc2)NC(=O)CN(CC[C@H]2CCCCO2)C(=O)[C@@H]1CC1CCCC1 (racemic) [Example 288, (3RS,7S,13R)-N-(2-(benzo[d][1,3]dioxol-5-yl)ethyl)-13-benzyl-7-(cyclopentylmethyl)-6-methyl-1,5,8,11-tetraoxo-9-(2-((SR)-tetrahydro-2H-pyran-2-yl)ethyl)-1,2,3,4,5,6,7,8,9,10,11,12,13,14-tetradecahydronaphtho[1,2-p][1]oxa[4,7,10,14]tetraazacycloheptadecine-3-carboxamide] | 147 nM | 175% | 
3 | CN1C(=O)C[C@@H](C(=O)NCCc2ccc3c(c2)OCO3)NC(=O)c2c(ccc3ccccc23)OC[C@@H](Cc2ccccc2)NC(=O)CN(CC[C@H]2CCCCO2)C(=O)[C@@H]1CC1CCCCC1 (racemic) [Example 289, (3RS,7S,13R)-N-(2-(benzo[d][1,3]dioxol-5-yl)ethyl)-13-benzyl-7-(cyclohexylmethyl)-6-methyl-1,5,8,11-tetraoxo-9-(2-((SR)-tetrahydro-2H-pyran-2-yl)ethyl)-1,2,3,4,5,6,7,8,9,10,11,12,13,14-tetradecahydronaphtho[1,2-p][1]oxa[4,7,10,14]tetraazacycloheptadecine-3-carboxamide] | 186 nM | 160% | 
4 | CN1C(=O)C[C@@H](C(=O)NCCc2ccc3c(c2)OCO3)NC(=O)c2c(ccc3ccccc23)OC[C@@H](Cc2ccccc2)NC(=O)CN(CCC2CCCCC2)C(=O)[C@@H]1CC1CCCC1 (racemic) [Example 290, (3RS,7S,13R)-N-(2-(benzo[d][1,3]dioxol-5-yl)ethyl)-13-benzyl-9-(2-cyclohexylethyl)-7-(cyclopentylmethyl)-6-methyl-1,5,8,11-tetraoxo-1,2,3,4,5,6,7,8,9,10,11,12,13,14-tetradecahydronaphtho[1,2-p][1]oxa[4,7,10,14]tetraazacycloheptadecine-3-carboxamide] |  | 260% | 
5 | CN1C(=O)C[C@@H](C(=O)NCCc2ccc3c(c2)OCO3)NC(=O)c2c(ccc3ccccc23)OC[C@@H](Cc2ccccc2)NC(=O)CN(CCC2CCCCC2)C(=O)[C@@H]1CC1CCCCC1 (racemic) [Example 291, (3RS,7S,13R)-N-(2-(benzo[d][1,3]dioxol-5-yl)ethyl)-13-benzyl-9-(2-cyclohexylethyl)-7-(cyclohexylmethyl)-6-methyl-1,5,8,11-tetraoxo-1,2,3,4,5,6,7,8,9,10,11,12,13,14-tetradecahydronaphtho[1,2-p][1]oxa[4,7,10,14]tetraazacycloheptadecine-3-carboxamide] | 109 nM | 210% | 
6 | CN1C(=O)C[C@@H](C(=O)NCCc2ccc3c(c2)OCO3)NC(=O)c2c(ccc3ccccc23)OC[C@@H](Cc2ccccc2)NC(=O)CN(CCC2CCCCC2)C(=O)[C@@H]1CC1CCC1 (racemic) [Example 292, (3RS,7S,13R)-N-(2-(benzo[d][1,3]dioxol-5-yl)ethyl)-13-benzyl-7-(cyclobutylmethyl)-9-(2-cyclohexylethyl)-6-methyl-1,5,8,11-tetraoxo-1,2,3,4,5,6,7,8,9,10,11,12,13,14-tetradecahydronaphtho[1,2-p][1]oxa[4,7,10,14]tetraazacycloheptadecine-3-carboxamide] |  | 191% | 
7 | COc1cccc(CCNC(=O)[C@@H]2CC(=O)N(C)[C@@H](CC3CCCC3)C(=O)N(C[C@@H]3CCCCO3)CC(=O)N[C@H](Cc3ccccc3)COc3ccc4ccccc4c3C(=O)N2)c1 (racemic) [Example 293, (3RS,7S,13R)-13-benzyl-7-(cyclopentylmethyl)-N-(3-methoxyphenethyl)-6-methyl-1,5,8,11-tetraoxo-9-(((S)-tetrahydro-2H-pyran-2-yl)methyl)-1,2,3,4,5,6,7,8,9,10,11,12,13,14-tetradecahydronaphtho[1,2-p][1]oxa[4,7,10,14]tetraazacycloheptadecine-3-carboxamide] |  |  | 137%
8 | COc1cccc(CCNC(=O)[C@@H]2CC(=O)N(C)[C@@H](CC3CCCCC3)C(=O)N(C[C@@H]3CCCCO3)CC(=O)N[C@H](Cc3ccccc3)COc3ccc4ccccc4c3C(=O)N2)c1 (racemic) [Example 294, (3RS,7S,13R)-13-benzyl-7-(cyclohexylmethyl)-N-(3-methoxyphenethyl)-6-methyl-1,5,8,11-tetraoxo-9-(((S)-tetrahydro-2H-pyran-2-yl)methyl)-1,2,3,4,5,6,7,8,9,10,11,12,13,14-tetradecahydronaphtho[1,2-p][1]oxa[4,7,10,14]tetraazacycloheptadecine-3-carboxamide] | 265 nM | 138% | 
9 | COc1cccc(CCNC(=O)[C@@H]2CC(=O)N(C)[C@@H](CC3CCCC3)C(=O)N(C[C@@H]3CCCCO3)CC(=O)N[C@H](Cc3ccccc3)COc3ccc4ccccc4c3C(=O)N2)c1 (racemic) [Example 295, (3RS,7S,13R)-13-benzyl-7-(cyclopentylmethyl)-N-(3-methoxyphenethyl)-6-methyl-1,5,8,11-tetraoxo-9-(((R)-tetrahydro-2H-pyran-2-yl)methyl)-1,2,3,4,5,6,7,8,9,10,11,12,13,14-tetradecahydronaphtho[1,2-p][1]oxa[4,7,10,14]tetraazacycloheptadecine-3-carboxamide] |  |  | 174%
10 | COc1cccc(CCNC(=O)[C@@H]2CC(=O)N(C)[C@@H](CC3CCCCC3)C(=O)N(C[C@H]3CCCCO3)CC(=O)N[C@H](Cc3ccccc3)COc3ccc4ccccc4c3C(=O)N2)c1 (racemic) [Example 296, (3RS,7S,13R)-13-benzyl-7-(cyclohexylmethyl)-N-(3-methoxyphenethyl)-6-methyl-1,5,8,11-tetraoxo-9-(((R)-tetrahydro-2H-pyran-2-yl)methyl)-1,2,3,4,5,6,7,8,9,10,11,12,13,14-tetradecahydronaphtho[1,2-p][1]oxa[4,7,10,14]tetraazacycloheptadecine-3-carboxamide] |  | 144% | 
11 | COc1cccc(CCNC(=O)[C@@H]2CC(=O)N(C)[C@@H](CC(C)C)C(=O)N(CC[C@H]3CCCCO3)CC(=O)N[C@H](Cc3ccccc3)COc3ccc4ccccc4c3C(=O)N2)c1 (racemic) [Example 297, (3RS,7S,13R)-13-benzyl-7-isobutyl-N-(3-methoxyphenethyl)-6-methyl-1,5,8,11-tetraoxo-9-(2-((SR)-tetrahydro-2H-pyran-2-yl)ethyl)-1,2,3,4,5,6,7,8,9,10,11,12,13,14-tetradecahydronaphtho[1,2-p][1]oxa[4,7,10,14]tetraazacycloheptadecine-3-carboxamide] | 193 nM | 225% | 
12 | COc1cccc(CCNC(=O)[C@@H]2CC(=O)N(C)[C@@H](CC3CCCC3)C(=O)N(CC[C@H]3CCCCO3)CC(=O)N[C@H](Cc3ccccc3)COc3ccc4ccccc4c3C(=O)N2)c1 (racemic) [Example 298, (3RS,7S,13R)-13-benzyl-7-(cyclopentylmethyl)-N-(3-methoxyphenethyl)-6-methyl-1,5,8,11-tetraoxo-9-(2-((SR)-tetrahydro-2H-pyran-2-yl)ethyl)-1,2,3,4,5,6,7,8,9,10,11,12,13,14-tetradecahydronaphtho[1,2-p][1]oxa[4,7,10,14]tetraazacycloheptadecine-3-carboxamide] | 220 nM | 186% | 
13 | COc1cccc(CCNC(=O)[C@@H]2CC(=O)N(C)[C@@H](CC3CCCCC3)C(=O)N(CC[C@H]3CCCCO3)CC(=O)N[C@H](Cc3ccccc3)COc3ccc4ccccc4c3C(=O)N2)c1 (racemic) [Example 299, (3RS,7S,13R)-13-benzyl-7-(cyclohexylmethyl)-N-(3-methoxyphenethyl)-6-methyl-1,5,8,11-tetraoxo-9-(2-((SR)-tetrahydro-2H-pyran-2-yl)ethyl)-1,2,3,4,5,6,7,8,9,10,11,12,13,14-tetradecahydronaphtho[1,2-p][1]oxa[4,7,10,14]tetraazacycloheptadecine-3-carboxamide] | 109 nM | 136% | 
14 | COc1cccc(CCNC(=O)[C@@H]2CC(=O)N(C)[C@@H](CC3CCCC3)C(=O)N(CCC3CCCCC3)CC(=O)N[C@H](Cc3ccccc3)COc3ccc4ccccc4c3C(=O)N2)c1 (racemic) [Example 300, (3RS,7S,13R)-13-benzyl-9-(2-cyclohexylethyl)-7-(cyclopentylmethyl)-N-(3-methoxyphenethyl)-6-methyl-1,5,8,11-tetraoxo-1,2,3,4,5,6,7,8,9,10,11,12,13,14-tetradecahydronaphtho[1,2-p][1]oxa[4,7,10,14]tetraazacycloheptadecine-3-carboxamide] |  | 210% | 
15 | COc1cccc(CCNC(=O)[C@@H]2CC(=O)N(C)[C@@H](CC3CCCCC3)C(=O)N(CCC3CCCCC3)CC(=O)N[C@H](Cc3ccccc3)COc3ccc4ccccc4c3C(=O)N2)c1 (racemic) [Example 301, (3RS,7S,13R)-13-benzyl-9-(2-cyclohexylethyl)-7-(cyclohexylmethyl)-N-(3-methoxyphenethyl)-6-methyl-1,5,8,11-tetraoxo-1,2,3,4,5,6,7,8,9,10,11,12,13,14-tetradecahydronaphtho[1,2-p][1]oxa[4,7,10,14]tetraazacycloheptadecine-3-carboxamide] |  | 202% | 
